Experiments:
MCF7 [1] = assay: cells; assay type: functional, cell-based; conditions: Homo sapiens
Description: Inhibition of 10e-4 uM estradiol induced estrogen receptor positive MCF-7 human breast cancer cell proliferation

MCF7 [2] = assay: cells; assay type: functional, cell-based; conditions: Homo sapiens; remark: listed apart in the source
Description: Anti-proliferative activity against estrogen-responsive human breast cancer cell line MCF-7 in the presence of ER at a 10e-4 uM concentration of estradiol

Estrogen receptor = Estrogen receptor (Homo sapiens, UniProt Q92731+P03372)
Description: Binding affinity for estrogen receptor, by competition with [3H]estradiol

MDA-MB-453 [3] = assay: cells; conditions: Homo sapiens
Description: Inhibition of estrogen receptor negative MDA-MB-453 breast cancer cell proliferation with 10e-4 M estradiol

HeLa [4] = assay: Inhibition of […]e-2 uM estradiol induced human cancer cell HeLa S3 proliferation; assay type: functional, cell-based
MCF7 [5] = assay: Inhibition of estrogen receptor positive MCF-7 human breast cancer cell proliferation; assay type: functional, cell-based
MDA-MB-453 [6] = assay: Inhibition of estrogen receptor negative MDA-MB-453 breast cancer cell proliferation; assay type: functional, cell-based; conditions: Homo sapiens
WiDr [7] = assay: Inhibition of WiDr human cancer cell proliferation; assay type: functional, cell-based
WiDr [8] = assay: Inhibition of WiDr human cancer cell proliferation with 10e-2 uM estradiol; assay type: functional, cell-based
HeLa [9] = assay: cells; conditions: Homo sapiens
Description: Inhibition of 10e-2 uM estradiol induced human cancer cell HeLa S3 proliferation

| SMILES | IC50 (MCF7 [1]) | IC50 (MCF7 [2]) | IC50 (Estrogen receptor) | further results |
| --- | --- | --- | --- | --- |
| O=c1cc(-c2ccc(O)cc2)oc2cc(O)cc(O)c12 [APIGENIN] | 95 µM | > 100 µM |  |  |
| COc1ccc(-c2cc(=O)c3c(N)cccc3o2)cc1 | > 100 µM | 12 µM | > 100 µM |  |
| CCN(CC)c1ccc(-c2cc(=O)c3c(N)cccc3o2)cc1 | 0.01 µM | 0.002 µM |  |  |
| CN(C)c1ccc(-c2cc(=O)c3cccc(N)c3o2)cc1 | 2 µM | 0.021 µM |  |  |
| CCCCNc1ccc(-c2cc(=O)c3c(N)cccc3o2)cc1 | 0.0087 µM | 0.0051 µM | > 100 µM |  |
| CC/C(=C(\c1ccccc1)c1ccc(OCCN(C)C)cc1)c1ccccc1 [TAMOXIFEN] | 19 µM | 0.14 µM |  | IC50 (MDA-MB-453 [3]): > 5 µM |
| Nc1ccc(-c2cc(=O)c3c(N)cccc3o2)cc1 | 0.0098 µM | 0.0072 µM | > 100 µM | IC50 (HeLa [4]): > 10 µM; IC50 (MCF7 [5]): 0.052 µM; IC50 (MDA-MB-453 [6]): > 5 µM; IC50 (WiDr [7]): > 10 µM |
| CCCNc1ccc(-c2cc(=O)c3c(N)cccc3o2)cc1 | 0.0087 µM | 0.0067 µM | > 100 µM |  |
| CN(C)c1ccc(-c2cc(=O)c3c(N)cccc3o2)cc1 | 0.005 µM | 0.004 µM | > 100 µM |  |
| COc1cccc2c1C(=O)c1c(O)c3c(c(O)c1C2=O)C[C@@](O)(C(=O)CO)C[C@@H]3O[C@H]1C[C@H](N)[C@H](O)[C@H](C)O1 [DOXORUBICIN] |  |  |  | IC50 (WiDr [8]): 0.62 µM; IC50 (HeLa [9]): 0.03 µM |
| Nc1cccc2oc(-c3ccccc3)cc(=O)c12 | > 100 µM | 13 µM | > 100 µM |  |
| Nc1cccc2oc(-c3ccc(O)cc3)cc(=O)c12 | > 100 µM | 1.5 µM | 18 µM |  |
| O=c1c(-c2ccc(O)cc2)coc2cc(O)cc(O)c12 [GENISTEIN] | 77 µM | 11 µM |  |  |
| N#Cc1ccc(-c2cc(=O)c3c(N)cccc3o2)cc1 | 94 µM | > 100 µM | > 100 µM |  |
| CCNc1ccc(-c2cc(=O)c3c(N)cccc3o2)cc1 | 0.0017 µM | 0.0013 µM | > 100 µM | IC50 (HeLa [4]): > 10 µM; IC50 (MCF7 [5]): 0.092 µM; IC50 (WiDr [7]): > 10 µM |
| CC(=O)Nc1ccc(-c2cc(=O)c3c(N)cccc3o2)cc1 | 18 µM | 13 µM | > 100 µM |  |
| Nc1cccc(-c2cc(=O)c3c(N)cccc3o2)c1 | > 100 µM | 27 µM |  |  |
| CNc1ccc(-c2cc(=O)c3c(N)cccc3o2)cc1 | 0.0054 µM | 0.0023 µM | > 100 µM | IC50 (HeLa [4]): 6.3 µM; IC50 (MCF7 [5]): 0.076 µM; IC50 (WiDr [7]): > 10 µM |
| Nc1cccc2oc(-c3ccc(Br)cc3)cc(=O)c12 | 9.5 µM | 1 µM | > 100 µM |  |
| CN(C)c1ccc(-c2cc(=O)c3cc(N)ccc3o2)cc1 | 0.035 µM | 0.013 µM |  |  |
| CCCCCCNc1ccc(-c2cc(=O)c3c(N)cccc3o2)cc1 | 0.44 µM | 0.075 µM |  |  |
| CN(C)c1ccc(-c2cc(=O)c3ccc(N)cc3o2)cc1 | 6.9 µM | 5 µM |  |  |
| CN(C)c1cccc(-c2cc(=O)c3cc(N)ccc3o2)c1 | 13 µM | 13 µM |  |  |
| Nc1cccc2oc(-c3ccc(NCc4ccccc4)cc3)cc(=O)c12 | 4.3 µM | 4.1 µM | > 100 µM |  |
| Nc1cccc2oc(-c3ccc(C(=O)O)cc3)cc(=O)c12 | > 10 µM | > 10 µM |  |  |
